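Cells were grown in 96-well plates and exposed to each compound for 48 hours at five concentrations; endpoints were interpolated linearly between bracketing concentrations, or set to the highest concentration if not reached. GI50 = concentration required for 50% inhibition of growth.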 The source made the active and inactive calls. No stated cut-off is given here; in the data, active = GI50 up to about 1.1 µM and inactive = higher.
Experiments:
Assay in all cases: inhibition of tumour cell growth, NCI panel, 48 h
RXF 393 = tested on: RXF 393
OVCAR-8 = tested on: OVCAR-8
MDA-MB-231 = tested on: MDA-MB-231
HCT-116 = tested on: HCT-116
MDA-N = tested on: MDA-N
CCRF-CEM = tested on: CCRF-CEM
DU-145 = tested on: DU-145
NCI-H460 = tested on: NCI-H460
OVCAR-3 = tested on: OVCAR-3
TK-10 = tested on: TK-10
OVCAR-4 = tested on: OVCAR-4
NCI-H522 = tested on: NCI-H522
M14 = tested on: M14
SR = tested on: SR
ACHN = tested on: ACHN
SK-OV-3 = tested on: SK-OV-3
BT-549 = tested on: BT-549
Hs-578T = tested on: Hs-578T
HCC 2998 = tested on: HCC 2998
LXFL 529 = tested on: LXFL 529

| Compound | GI50 (RXF 393) | GI50 (OVCAR-8) | GI50 (MDA-MB-231) | GI50 (HCT-116) | GI50 (MDA-N) | GI50 (CCRF-CEM) | GI50 (DU-145) | GI50 (NCI-H460) | GI50 (OVCAR-3) | GI50 (TK-10) | GI50 (OVCAR-4) | GI50 (NCI-H522) | GI50 (M14) | GI50 (SR) | GI50 (ACHN) | GI50 (SK-OV-3) | GI50 (BT-549) | GI50 (Hs-578T) | GI50 (HCC 2998) | GI50 (LXFL 529) |
| --- | --- | --- | --- | --- | --- | --- | --- | --- | --- | --- | --- | --- | --- | --- | --- | --- | --- | --- | --- | --- |
| CSC1=NN(C(C)=O)C(C(OC(C)=O)C(OC(C)=O)C(OC(C)=O)C(COC(C)=O)OC(C)=O)S1 (centres undefined) | > 100 µM (inactive) | > 100 µM (inactive) | > 100 µM (inactive) | > 100 µM (inactive) | > 100 µM (inactive) | > 100 µM (inactive) | > 100 µM (inactive) | > 100 µM (inactive) | > 100 µM (inactive) | > 100 µM (inactive) | > 100 µM (inactive) | > 100 µM (inactive) | > 100 µM (inactive) | > 100 µM (inactive) | > 100 µM (inactive) | > 100 µM (inactive) | > 100 µM (inactive) | > 100 µM (inactive) | > 100 µM (inactive) |  |
| CC(C)(C)c1cc(C(=O)/C=C/c2c(Cl)cccc2Cl)cc(C(C)(C)C)c1O | 2.05 µM (inactive) | 18.9 µM (inactive) | 10.9 µM (inactive) | 8.83 µM (inactive) | 16.7 µM (inactive) | 4.04 µM (inactive) | 23 µM (inactive) | 7.46 µM (inactive) | 3.79 µM (inactive) | 19.4 µM (inactive) | 28.7 µM (inactive) | 5.57 µM (inactive) | 20.3 µM (inactive) | 3.86 µM (inactive) | 14.7 µM (inactive) | 53.5 µM (inactive) | 17.4 µM (inactive) | 25.2 µM (inactive) | 14.1 µM (inactive) |  |
| O=C(Nc1ccc(Cl)cc1Cl)/C(Cl)=C1/Sc2ccccc2NC1=O | 27.9 µM (inactive) | 50.5 µM (inactive) |  | 23 µM (inactive) |  | 22.8 µM (inactive) |  | 38.6 µM (inactive) |  | 73.5 µM (inactive) | 24.7 µM (inactive) | 18.8 µM (inactive) | 29.2 µM (inactive) |  | 38 µM (inactive) | 20.8 µM (inactive) |  |  | 32 µM (inactive) | 22.2 µM (inactive) |
| CCOC(=O)C1CCCCN1CCc1c[nH]c2ccccc12 (centres undefined) | 80.9 µM (inactive) | > 100 µM (inactive) | > 100 µM (inactive) | 60 µM (inactive) | > 100 µM (inactive) | > 100 µM (inactive) | > 100 µM (inactive) | 94.8 µM (inactive) | > 100 µM (inactive) | > 100 µM (inactive) | 73.5 µM (inactive) | 56.2 µM (inactive) | > 100 µM (inactive) | > 100 µM (inactive) | > 100 µM (inactive) | > 100 µM (inactive) | 75 µM (inactive) | > 100 µM (inactive) | > 100 µM (inactive) |  |
| C#CCC1(C(=O)OCC)C(=O)c2ccccc2N(C)C1=O (centres undefined) |  | > 100 µM (inactive) |  |  |  | > 100 µM (inactive) |  | > 100 µM (inactive) | > 100 µM (inactive) | > 100 µM (inactive) |  | 12.1 µM (inactive) | > 100 µM (inactive) |  | 93.5 µM (inactive) | > 100 µM (inactive) |  |  |  | > 100 µM (inactive) |
| COc1ccc2c(c1OC)C(=O)N1C2=Cc2c(cc3c(c2OC)OCO3)CC1N(C)C (centres undefined) | 54.5 µM (inactive) | 35.7 µM (inactive) | 81.1 µM (inactive) | 35.3 µM (inactive) | 95.3 µM (inactive) | 27.7 µM (inactive) | 43.8 µM (inactive) | 28.8 µM (inactive) | 40.6 µM (inactive) | 96.6 µM (inactive) | 30.1 µM (inactive) | 28.9 µM (inactive) | 66.7 µM (inactive) | 28.9 µM (inactive) | 29.9 µM (inactive) | 87.7 µM (inactive) | 33.3 µM (inactive) | 34.8 µM (inactive) | > 100 µM (inactive) |  |
| C/C(CCn1[nH]c(=O)ccc1=O)=N\NC(=O)C(=O)NN | > 100 µM (inactive) | > 100 µM (inactive) |  |  |  | > 100 µM (inactive) |  | > 100 µM (inactive) | > 100 µM (inactive) | > 100 µM (inactive) | > 100 µM (inactive) | > 100 µM (inactive) | > 100 µM (inactive) |  | > 100 µM (inactive) | > 100 µM (inactive) |  |  | > 100 µM (inactive) | > 100 µM (inactive) |
| CO/C(=N\N=C\c1cccc(C(F)(F)F)c1)c1ccncc1 | 6.64 µM (inactive) | 9.46 µM (inactive) | 7.14 µM (inactive) | 5.52 µM (inactive) | 2.13 µM (inactive) | 4.62 µM (inactive) | 7.85 µM (inactive) | 4.97 µM (inactive) | 10.7 µM (inactive) | 17.5 µM (inactive) | 41 µM (inactive) | 5.45 µM (inactive) | 6.3 µM (inactive) | 5.75 µM (inactive) | 8.13 µM (inactive) | 6.89 µM (inactive) | 7.13 µM (inactive) | 5.93 µM (inactive) | 6.41 µM (inactive) |  |
| CCOC(=O)c1c(N2CCCC2)ncn(Cc2ccccc2)c1=S | > 100 µM (inactive) | > 100 µM (inactive) | > 100 µM (inactive) | > 100 µM (inactive) | > 100 µM (inactive) | > 100 µM (inactive) | > 100 µM (inactive) | > 100 µM (inactive) | > 100 µM (inactive) | > 100 µM (inactive) | 91.4 µM (inactive) | > 100 µM (inactive) | > 100 µM (inactive) | > 100 µM (inactive) | 95.1 µM (inactive) | > 100 µM (inactive) | > 100 µM (inactive) | > 100 µM (inactive) | > 100 µM (inactive) |  |
| O=[N+]([O-])c1ccc(C(=S)Nc2ccccc2)o1 | 4.14 µM (inactive) | 2.51 µM (inactive) | 2.74 µM (inactive) | 1.81 µM (inactive) | 2.96 µM (inactive) | 2.45 µM (inactive) | 6.41 µM (inactive) | 3.19 µM (inactive) | 2.19 µM (inactive) | 4.74 µM (inactive) | 2.43 µM (inactive) | 1.34 µM (inactive) | 4.94 µM (inactive) | 1.79 µM (inactive) | 2.36 µM (inactive) | 11.4 µM (inactive) | 4.76 µM (inactive) | 3.71 µM (inactive) | 1.69 µM (inactive) |  |
| O=C(c1c(F)c(F)c(F)c(F)c1F)n1c(O)nc2ccccc21 | 8.59 µM (inactive) | 13.2 µM (inactive) | 12.2 µM (inactive) | 3.49 µM (inactive) | 7.33 µM (inactive) | 4.53 µM (inactive) | 15.7 µM (inactive) | 12.8 µM (inactive) | 9.77 µM (inactive) | 5.19 µM (inactive) | 13.3 µM (inactive) | 5.9 µM (inactive) | 9.33 µM (inactive) | 2.62 µM (inactive) | 16.1 µM (inactive) | 15.4 µM (inactive) | 18.5 µM (inactive) | 17.2 µM (inactive) | 3.56 µM (inactive) |  |
| Cc1ccccc1/N=N/c1c(O)c(S(=O)(=O)O)cc2cc(S(=O)(=O)O)ccc12 | > 100 µM (inactive) | > 100 µM (inactive) | > 100 µM (inactive) | > 100 µM (inactive) | > 100 µM (inactive) | > 100 µM (inactive) | > 100 µM (inactive) | > 100 µM (inactive) | > 100 µM (inactive) | > 100 µM (inactive) | > 100 µM (inactive) | > 100 µM (inactive) | > 100 µM (inactive) | > 100 µM (inactive) | > 100 µM (inactive) | > 100 µM (inactive) | > 100 µM (inactive) | > 100 µM (inactive) | > 100 µM (inactive) |  |
| CCOP(=O)(O)C(Nc1ccc(/N=N/c2ccccc2)cc1)c1ccc(C(Nc2ccc(/N=N/c3ccccc3)cc2)P(=O)(O)OCC)cc1 (centres undefined) | 25.2 µM (inactive) | 16.3 µM (inactive) | 30 µM (inactive) | 18.3 µM (inactive) | 19.4 µM (inactive) | 22.1 µM (inactive) | > 100 µM (inactive) | 22 µM (inactive) | 75.7 µM (inactive) | 36.2 µM (inactive) | 42.8 µM (inactive) | 18.6 µM (inactive) | 15.7 µM (inactive) | 19.8 µM (inactive) | > 100 µM (inactive) | 18.7 µM (inactive) | 18.1 µM (inactive) | 18.6 µM (inactive) | 17.9 µM (inactive) |  |
| CC(=O)Oc1cccc2c1C(=O)c1c(OC(C)=O)cc(C)cc1C2=O | 28.2 µM (inactive) | 39.8 µM (inactive) | 43 µM (inactive) | 33.6 µM (inactive) | 58.5 µM (inactive) | 18.8 µM (inactive) | 56.6 µM (inactive) | 26.1 µM (inactive) | 16.4 µM (inactive) | > 100 µM (inactive) | 27.7 µM (inactive) | 12.2 µM (inactive) | 81.7 µM (inactive) | 33 µM (inactive) | 78.3 µM (inactive) | 34 µM (inactive) | 61.1 µM (inactive) | 46.6 µM (inactive) | 61.7 µM (inactive) |  |
| C[C@@H]1C[C@H]2CC[C@H](O2)[C@H](C)C(=O)O[C@@H](C)C[C@@H]2CC[C@@H](O2)[C@@H](C)C(=O)O[C@H](C)C[C@H]2CC[C@H](O2)[C@H](C)C(=O)O[C@@H](C)C[C@@H]2CC[C@@H](O2)[C@@H](C)C(=O)O1 | 0.356 µM (active) | 0.295 µM (active) | 0.345 µM (active) | 0.315 µM (active) | 0.404 µM (active) | 0.292 µM (active) | 1.43 µM (inactive) | 0.426 µM (active) | 0.073 µM (active) | 0.425 µM (active) | 0.136 µM (active) | 0.211 µM (active) | 0.434 µM (active) | 0.495 µM (active) | 0.212 µM (active) | 0.2 µM (active) | 0.396 µM (active) | 0.489 µM (active) | 1.1 µM (active) |  |

Source: ChEMBL document CHEMBL1201862, “PubChem BioAssay data set” (2004)
